Data from patent US20140315797A1, “Novel N-Terminally Modified Insulin Derivatives” (priority 2010, published 2014).
Where two headings read alike, the source gives them in different places. Starred links: 1 amine or outer side, 2 acyl side, 3 side chain; linkers in the order of their positions; H or OH if unused. Positions of bridges follow the written chain, without caps; N, C: chain ends. Groups on a side chain read outwards from the residue. Chains are numbered I, II in the order given. No end group written: not given here. *: point of attachment. Phe(Nα-CONH2) = NC(=O)N[C@@H](Cc1ccccc1)C(=O)*; C20 diacid = O=C(O)CCCCCCCCCCCCCCCCCCC(=O)*; C18 diacid = O=C(O)CCCCCCCCCCCCCCCCC(=O)*; C16 diacid = O=C(O)CCCCCCCCCCCCCCC(=O)*; NMe2Phe = CN(C)[C@@H](Cc1ccccc1)C(=O)*; γGlu = O=C(O)[C@H](CCC(=O)[*:2])N[*:1]; X1 = CCN(CC)[C@@H](Cc1ccccc1)C(=O)*; Hydantoyl = NC(=O)NCC(=O)*; AEEA = NCCOCCOCC(=O)O; Me2Gly = CN(C)CC(=O)*; X2 = CCN(CC)CC(=O)*

How the values were obtained:
[1] = molecular target: T1, human insulin receptor (IR-A) (Homo sapiens, UniProt P06213); details: relative to affinity of human insulin; […] HSA in binding buffer
Description: (§1) The affinity of the acylated insulin analogues of this invention for the human insulin receptor is determined by a SPA assay (Scintillation Proximity Assay) microtiterplate antibody capture assay. SPA-PVT antibody-binding beads, anti-mouse reagent (Amersham Biosciences, Cat No. PRNQ0017) are mixed with 25 ml of binding buffer (100 mM HEPES pH 7.8; 100 mM sodium chloride, 10 mM MgSO4, 0.025% Tween-20). Reagent mix for a single Packard Optiplate (Packard No. 6005190) is composed of 2.4 μl of a 1:5000 diluted purified recombinant human insulin receptor (either with or without exon 11), an amount of a stock solution of A14Tyr[^125I]-human insulin corresponding to 5000 cpm per 100 μl of reagent mix, 12 μl of a 1:1000 dilution of F12 antibody, 3 ml of SPA-beads and binding buffer to a total of 12 ml. A total of 100 μl reagent mix is then added to each well in the Packard Optiplate and a dilution series of the insulin derivative is made in the Optiplate from appropriate samples. The samples are then incubated for 16 hours while gently shaken. The phases are the then separated by centrifugation for 1 min and the plates counted in a Topcounter. The binding data were fitted using the nonlinear regression algorithm in the GraphPad Prism 2.01 (GraphPad Software, San Diego, Calif.) and affinities are expressed relative (in percentage (%)) to the affinity of human insulin.
A related assay is also used wherein the binding buffer also contains 1.5% HSA in order to mimic physiological conditions

[2] = molecular target: T1, human insulin receptor (IR-A); assay: Insulin receptor affinity, SPA antibody capture assay, 0% HSA; format: binding; details: relative to affinity of human insulin
Description: as §1

[3] = test system: primary rat adipocytes; assay: Lipogenesis in rat adipocytes; format: cell-based; details: relative potency vs human insulin, unit %
Description: As a measure of in vitro potency of the insulins of the invention, lipogenesis can be used.
Primary rat adipocytes are isolated from the epididymale fat pads and incubated with 3H-glucose in buffer containing e.g. 0.1% fat free HSA and either standard (human insulin, HI) or insulin of the invention. The labelled glucose is converted into extractable lipids in a dose dependent way, resulting in full dose response curves.

[4] = Hydrophobicity by isocratic reverse phase HPLC (k'rel); format: physicochemical; details: human insulin = 1, RP-HPLC pH 7.3
Description: The elution time of the insulin derivative is compared to that of human insulin (herein designated HI) or another derivative with a known hydrophibicity under the same conditions. The hydrophobicity, k′rel, is calculated as: k′relderiv=((tderiv−t0)/(tref−t0))*k′relref. Using HI as reference: k′relref=k′relHI=1. The void time of the HPLC system, t0, is determined by injecting 5 μl of 0.1 mM NaNO3. Running conditions:
Column: Lichrosorb RP-C18, 5 μm, 4×250 mm
Buffer A: 0.1 M natrium phosphate pH 7.3, 10 vol % CH3CN
After running an initial gradient, the isocratic level for running the derivative and reference (for example HI) is chosen, and the elution times of the derivative and reference under isocratic conditions are used in the above equation to calculate k′relderiv.

[5] = test system: duodenum lumen enzymes; assay: Degradation of insulin analogs using duodenum lumen enzymes; details: degradation half time divided by that of reference insulin; rat duodenum enzymes, pH 7.4, 37° C.
Description: (§2) Degradation of insulin analogs using duodenum lumen enzymes (prepared by filtration of duodenum lumen content) from SPD rats. The assay is performed by a robot in a 96 well plate (2 ml) with 16 wells available for insulin analogs and standards. Insulin analogs ˜15 μM are incubated with duodenum enzymes in 100 mM Hepes, pH=7.4 at 37° C., samples are taken after 1, 15, 30, 60, 120 and 240 min and reaction quenched by addition of TFA. Intact insulin analogs at each point are determined by RP-HPLC. Degradation half time is determined by exponential fitting of the data and normalized to half time determined for the reference insulins, A14E, B25H, desB30 human insulin or human insulin in each assay. The amount of enzymes added for the degradation is such that the half time for degradation of the reference insulin is between 60 min and 180 min.

[6] = Chemical stability of insulin analogues formulated in lipid formulations (UPLC purity, SEC HMWP); format: physicochemical; details: lipid formulation
Description: Chemical stability of insulin analogues formulated in lipid formulations was assessed according to the protocol described here.
Composition of the formulation: […]
Insulin to be tested (75 μM)
The insulin to be tested (lyophilised from pH 7.5) is dissolved in propylenglycol in the dark for 16 hours. Diglycerol caprylate is added ad the mixture is stirred. Tween 20 is added and the mixture is stirred for 5 minutes. The mixture is gently agitated until it is homogeneous.
Extraction-mix: 1-butanol+0.1% (w/w) Tween80, 0.1M Na2HPO4/NaH2PO4 pH 7.0 • 1. The formulations are allowed to reach room temperature. • 2. To each Eppendorf tube 20 μl of the formulations are added. • 3. Add 490 μl 1-butanol followed by addition of 990 μl of the phosphate buffer. Vortex and incubate at RT for 30 min. • 4. Vortex again and centrifuge at RT at 14000 rpm for 20 min. Analyse the bottom aqueous phase for purity and HMWP formation.
Alternatively another extraction method can be used: • 1. The formulations are allowed to reach room temperature. • 2. To each Eppendorf tube 50 μl of the formulations are added. • 3. Add 950 μl of extraction buffer. Vortex well. Immediately after, load 800 μl (2×400 μl) for purification on the spin column. See spin protocol below. Ion Exchange on Q Spin Columns from Sartorius
(In the following all spin steps are for 5 min at 2000×g.) • 1. Apply 400 μl equilibration buffer to each spin column, and spin. Discard the flow-through. • 2. Apply 2×400 μl of each extracted sample. Spin the column between each application. Discard the flow-through. • 3. Apply 400 μl washing buffer to wash each spin column, and spin. Discard the wash. • 4. Apply 400 μl elution buffer to each spin column, and spin. Analyse the elution for purity and HMWP formation
Column: Waters BEH Shield RP18 UPLC column (2.1×100 mm, 1.7 μm)
Buffer A: 0.09M di-ammonium hydrogen phosphate pH 3.0, 10% (v/v) acetonitrile
Buffer B: 90% acetonitrile.
Column: Waters Insulin HMWP SEC column
Buffer: 500 mM NaCl, 10 mM NaH2PO4, 5 mM H3PO4, 50% (v/v) 2-propanol

[7] = test system: duodenum lumen enzymes; details: pH 7.4
Description: as §2

T1 sequence (P06213 28-746 isoform P06213-2 limits assumed): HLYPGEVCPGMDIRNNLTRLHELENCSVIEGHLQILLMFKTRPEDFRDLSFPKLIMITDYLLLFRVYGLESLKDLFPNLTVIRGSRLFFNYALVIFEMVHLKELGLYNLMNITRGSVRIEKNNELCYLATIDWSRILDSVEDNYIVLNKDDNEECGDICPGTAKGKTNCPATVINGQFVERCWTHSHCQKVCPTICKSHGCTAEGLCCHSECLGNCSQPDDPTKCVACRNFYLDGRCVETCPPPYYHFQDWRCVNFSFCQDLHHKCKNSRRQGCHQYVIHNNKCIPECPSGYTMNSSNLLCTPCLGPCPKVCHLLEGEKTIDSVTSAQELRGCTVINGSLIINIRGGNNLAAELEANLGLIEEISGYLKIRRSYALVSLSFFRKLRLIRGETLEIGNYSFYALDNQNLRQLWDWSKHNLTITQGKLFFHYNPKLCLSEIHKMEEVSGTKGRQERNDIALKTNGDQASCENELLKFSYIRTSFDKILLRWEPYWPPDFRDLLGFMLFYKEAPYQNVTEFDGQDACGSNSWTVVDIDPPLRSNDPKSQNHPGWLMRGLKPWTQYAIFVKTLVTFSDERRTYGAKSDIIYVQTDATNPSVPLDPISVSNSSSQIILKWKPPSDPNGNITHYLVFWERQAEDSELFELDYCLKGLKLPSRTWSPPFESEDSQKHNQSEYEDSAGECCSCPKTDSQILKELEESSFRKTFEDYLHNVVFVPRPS
T1 sequence (P06213 763-1382 partner limits assumed): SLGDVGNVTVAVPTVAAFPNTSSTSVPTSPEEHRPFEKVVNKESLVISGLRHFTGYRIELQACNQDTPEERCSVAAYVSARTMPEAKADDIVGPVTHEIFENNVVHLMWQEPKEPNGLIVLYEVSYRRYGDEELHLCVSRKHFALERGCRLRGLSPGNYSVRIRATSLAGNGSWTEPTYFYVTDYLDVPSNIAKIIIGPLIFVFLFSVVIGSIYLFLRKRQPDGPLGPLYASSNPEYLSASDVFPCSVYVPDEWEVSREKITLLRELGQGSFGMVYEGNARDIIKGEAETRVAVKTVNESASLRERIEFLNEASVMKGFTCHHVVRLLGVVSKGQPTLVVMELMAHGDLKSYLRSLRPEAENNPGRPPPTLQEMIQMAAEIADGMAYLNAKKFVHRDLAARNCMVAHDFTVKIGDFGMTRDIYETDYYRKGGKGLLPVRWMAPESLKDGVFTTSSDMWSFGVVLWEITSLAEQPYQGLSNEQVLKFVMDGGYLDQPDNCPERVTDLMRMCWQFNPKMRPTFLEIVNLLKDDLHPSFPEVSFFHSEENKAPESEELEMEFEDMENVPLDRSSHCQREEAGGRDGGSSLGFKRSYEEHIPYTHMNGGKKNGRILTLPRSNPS

Substance | Relative IR-A affinity (@ […] HSA) (%)e [1] [%] | Relative IR-A affinity (@ 0% HSA) (%) [2] [%] | Lipogenesis in rat adipocytres (@ 0.1% HSA) rel. to human insulin [3] [%] | Hydrophobicity rel. to human insulin [4] | Duodenum degradation. Relative stability vs. A14E, B25H, desB30 human insulin [5] | HMWP formed (%) 4 weeks ([6]; 30° C.) [%] | Impurities formed (%) 4 weeks ([6]; 30° C.) [%] | HMWP formed (%) 2 weeks ([6]; 2 weeks, 25° C.) [%] | Impurities formed (%) 2 weeks ([6]; 2 weeks, 25° C.) [%] | HMWP formed (%) 4 weeks ([6]; 25° C.) [%] | Impurities formed (%) 4 weeks ([6]; 25° C.) [%] | Duodenum degradation. Relative stability vs. A14E, B25H, desB30 human insulin [7]
A1(N,N-Dimethyl), A14E, B1(N,N-dimethyl), desB27, B29K(N^εoctadecanedioyl-gGlu-2xOEG), desB30 human insulin [Example 6] | 0.98 | 17.0 | 0.60 |  |  |  |  |  |  |  |  | 
A1G(N^α, N^α-Dimethyl), A14E, B1F(N(alpha), N(N^α, N^α-dimethyl), B25H, desB27, B29K(N^εhexadecanedioyl-gGlu-2xOEG), desB30 human insulin [Example 9] | 0.33 | 2.5 | 1.34 | 0.10 | 9.2 |  |  |  |  |  |  | 
I: NMe2Phe-VNQHLCGSHLVEALHLVCGERGFHYTPK([γGlu-C16 diacid]) / II: Me2Gly-IVEQCCTSICSLEQLENYCN (disulfide I:6-II:6, I:18-II:19, II:5-II:10) [Example 3, A1(N^α,N^α-Dimethyl), A14E, B1(N^α, N^α-dimethyl), B16H, B25H, B29K(N^εhexadecanedioyl-gGlu), desB30 human insulin] | 0.06 | 0.6 |  |  | 3.1 |  |  |  |  |  |  | 
I: NMe2Phe-VNQHLCGSHLVEALYLVCGERGFHYTPK([AEEA-AEEA-γGlu-C18 diacid]) / II: Me2Gly-IVEQCCTSICSLEQLENYCN (disulfide I:6-II:6, I:18-II:19, II:5-II:10) [Example 1, A1(N^α, N^α-Dimethyl), A14E, B1(N^α, N^α-dimethyl), B25H, B29K(N^εoctadecanedioyl-gGlu-2xOEG), desB30 human insulin] | 0.09 | 1.5 | 0.10 | 0.38 | 1.2 | 0.4 | 9.8 |  |  |  |  | 
I: X1-VNQHLCGSHLVEALYLVCGERGFHYTPK([AEEA-AEEA-γGlu-C18 diacid]) / II: X2-IVEQCCTSICSLEQLENYCN (disulfide I:6-II:6, I:18-II:19, II:5-II:10) [Example 2, A1(N^α,N^α-Diethyl), A14E, B1(N^α, N^α-diethyl), B25H, B29K(N^εOctadecanedioyl-gGlu-2xOEG), desB30 human insulin] | 0.05 | 1.7 |  |  |  |  |  | 0.0 | 1.7 | 0.1 | 3.2 | 0.8
I: {Phe(Nα-CONH2)}-VNQHLCGSHLVEALHLVCGERGFFYPK([AEEA-AEEA-γGlu-C20 diacid]) / II: Hydantoyl-IVEQCCTSICSLEQLENYCN (disulfide I:6-II:6, I:18-II:19, II:5-II:10) [Example 22] |  |  |  |  | 7.7 |  |  |  |  |  |  | 
I: {Phe(Nα-CONH2)}-VNQHLCGSHLVEALHLVCGERGFHYTPK([AEEA-AEEA-γGlu-C20 diacid]) / II: Hydantoyl-IVEQCCTSICSLEQLENYCN (disulfide I:6-II:6, I:18-II:19, II:5-II:10) [Example 16, A1(N^α-Carbamoyl), A14E, B1(N^α-Carbamoyl), B16H, B25H, B29K(N^εeicosanedioyl-gGlu-2xOEG), desB30 human insulin] | 0.01 | 0.1 |  |  | 0.4 |  |  |  |  |  |  | 
I: {Phe(Nα-CONH2)}-VNQHLCGSHLVEALYLVCGERGFHYPK([AEEA-AEEA-γGlu-C20 diacid]) / II: Hydantoyl-IVEQCCTSICSLEQLENYCN (disulfide I:6-II:6, I:18-II:19, II:5-II:10) [Example 28, A1G(N^αcarbamoyl), A14E, B1F(N^αcarbamoyl), B25H, desB27, B29K(N^εeicosanedioyl-gGlu-2xOEG), desB30 human insulin] | 0.25 | 0.7 |  |  | 2.1 |  |  |  |  |  |  | 
I: {Phe(Nα-CONH2)}-VNQHLCGSHLVEALYLVCGERGFHYTPK([AEEA-AEEA-γGlu-C18 diacid]) / II: Hydantoyl-IVEQCCTSICSLEQLENYCN (disulfide I:6-II:6, I:18-II:19, II:5-II:10) [Example 12, A1(N^αCarbamoyl), A14E, B1(N^αCarbamoyl), B25H, B29K(N^εoctadecanedioyl-gGlu-2xOEG), desB30 human insulin] | 0.06 | 0.3 | 0.02 | 0.15 | 1.5 | 0.2 | 4.4 |  |  |  |  | 
I: {Phe(Nα-CONH2)}-VNQHLCGSHLVEALYLVCGERGFHYTPK([AEEA-AEEA-γGlu-C20 diacid]) / II: Hydantoyl-IVEQCCTSICSLEQLENYCN (disulfide I:6-II:6, I:18-II:19, II:5-II:10) [Example 15, A1(N^αCarbamoyl), A14E, B1(N^αCarbamoyl), B25H, B29K(N^εeicosanedioyl-gGlu-2xOEG), desB30 human insulin] | 0.02 | 0.2 |  |  | 0.6 |  |  |  |  |  |  | 
